Columns and labels:
[1] = target: T1, GluN2B glutamate receptors (Homo sapiens, UniProt Q05586+Q13224); assay: Whole-cell patch clamp of mammalian cells (Ionworks Barracuda), positive allosteric modulation (PAM) of NMDA receptor, 2B; assay type: cell-based; settings: for Emax / Avg Emax 2B (%): % activation of current elicited with EC20 L-glutamate and 30 µM glycine; for EC50: co-application with EC20 L-glutamate and 30 µM glycine, 8-point concentration-response
T1 construct: expressed in transfected cells; host or cells: mammalian cells (line not described for GluN2B)
Method: (§1) The measurements were perfomed using Ion Works Barracuda platform following this procedure: • Electrophysiological Procedures: • a) Intracellular solution (mM): 50 mM CsCl, 90 mM CsF, 2 mM MgCl2, 5 mM EGTA, 10 mM HEPES. Adjust to pH 7.2 with CsOH. • b) Extracellular solution, HB-PS (composition in mM): NaCl, 137; KCl, 1.0; CaCl2, 5; HEPES, 10; Glucose, 10; pH adjusted to 7.4 with NaOH (refrigerated until use). • c) Holding potential: -70 mV, potential during agonist/PAM application: -40 mV. • Recording procedure: • a) Extracellular buffer will be loaded into the PPC plate wells (11 µL per well). Cell suspension will be pipetted into the wells (9 µL per well) of the PPC planar electrode. • b) Whole-cell recording configuration will be established via patch perforation with membrane currents recorded by on-board patch clamp amplifiers. • c) Two recordings (scans) will be performed. First, during pre-application of test article alone (duration of pre-application - 5 min) and second, during test articles and agonist (EC20 L-glutamate and 30 µM glycine) co-application to detect positive modulatory effects of the test article.
(§2) Test Article Administration: The first pre-application will consist of the addition of 20 µL of 2X concentrated test article solution and, second, of 20 µL of 1X concentrated test article and agonist at 10 µL/s (2 second total application time).
(§3) PAM concentration-response data will be fitted to an equation of the form: % Activation = % L−glutamate EC20 + {(%MAX−%L−glutamateEC20)/[1+(([Test]/; EC50))^N]}, [formula] where [Test] will be the concentration of PAM (test article), EC50 will be the concentration of PAM producing half-maximal activation, N will be the Hill coefficient, % L-glutamate EC20 will be the percentage of the current Elicited with L-glutamate EC20, % MAX is the percentage of the current activated with the highest dose of PAM co-admitted with L-glutamate EC20 and % Activation will be the percentage of the current elicited with L-glutamate EC10-30 at each PAM concentration.
(§4) The maximal amplitude of the evoked currents are measured and defined as Peak Current Amplitude (PCA).

[2] = target: T2, GlunN1/GluN2A glutamate receptors (Homo sapiens, UniProt Q05586+Q12879); assay: Whole-cell patch clamp of mammalian cells (Ionworks Barracuda), positive allosteric modulation (PAM) of NMDA receptor, 2A; assay type: cell-based; settings: for Emax: HEK293, HEK293 cells; for Emax / Avg Emax 2A (%): % activation of current elicited with EC20 L-glutamate and 30 µM glycine; for Avg Emax 2A (%) / EC50: HEK293 cells; for EC50: co-application with EC20 L-glutamate and 30 µM glycine, 8-point concentration-response
T2 construct: expressed in transfected cells
Method: as §1, §2, §3, §4

T1 sequence (Q13224 27-1484, other chains not shown): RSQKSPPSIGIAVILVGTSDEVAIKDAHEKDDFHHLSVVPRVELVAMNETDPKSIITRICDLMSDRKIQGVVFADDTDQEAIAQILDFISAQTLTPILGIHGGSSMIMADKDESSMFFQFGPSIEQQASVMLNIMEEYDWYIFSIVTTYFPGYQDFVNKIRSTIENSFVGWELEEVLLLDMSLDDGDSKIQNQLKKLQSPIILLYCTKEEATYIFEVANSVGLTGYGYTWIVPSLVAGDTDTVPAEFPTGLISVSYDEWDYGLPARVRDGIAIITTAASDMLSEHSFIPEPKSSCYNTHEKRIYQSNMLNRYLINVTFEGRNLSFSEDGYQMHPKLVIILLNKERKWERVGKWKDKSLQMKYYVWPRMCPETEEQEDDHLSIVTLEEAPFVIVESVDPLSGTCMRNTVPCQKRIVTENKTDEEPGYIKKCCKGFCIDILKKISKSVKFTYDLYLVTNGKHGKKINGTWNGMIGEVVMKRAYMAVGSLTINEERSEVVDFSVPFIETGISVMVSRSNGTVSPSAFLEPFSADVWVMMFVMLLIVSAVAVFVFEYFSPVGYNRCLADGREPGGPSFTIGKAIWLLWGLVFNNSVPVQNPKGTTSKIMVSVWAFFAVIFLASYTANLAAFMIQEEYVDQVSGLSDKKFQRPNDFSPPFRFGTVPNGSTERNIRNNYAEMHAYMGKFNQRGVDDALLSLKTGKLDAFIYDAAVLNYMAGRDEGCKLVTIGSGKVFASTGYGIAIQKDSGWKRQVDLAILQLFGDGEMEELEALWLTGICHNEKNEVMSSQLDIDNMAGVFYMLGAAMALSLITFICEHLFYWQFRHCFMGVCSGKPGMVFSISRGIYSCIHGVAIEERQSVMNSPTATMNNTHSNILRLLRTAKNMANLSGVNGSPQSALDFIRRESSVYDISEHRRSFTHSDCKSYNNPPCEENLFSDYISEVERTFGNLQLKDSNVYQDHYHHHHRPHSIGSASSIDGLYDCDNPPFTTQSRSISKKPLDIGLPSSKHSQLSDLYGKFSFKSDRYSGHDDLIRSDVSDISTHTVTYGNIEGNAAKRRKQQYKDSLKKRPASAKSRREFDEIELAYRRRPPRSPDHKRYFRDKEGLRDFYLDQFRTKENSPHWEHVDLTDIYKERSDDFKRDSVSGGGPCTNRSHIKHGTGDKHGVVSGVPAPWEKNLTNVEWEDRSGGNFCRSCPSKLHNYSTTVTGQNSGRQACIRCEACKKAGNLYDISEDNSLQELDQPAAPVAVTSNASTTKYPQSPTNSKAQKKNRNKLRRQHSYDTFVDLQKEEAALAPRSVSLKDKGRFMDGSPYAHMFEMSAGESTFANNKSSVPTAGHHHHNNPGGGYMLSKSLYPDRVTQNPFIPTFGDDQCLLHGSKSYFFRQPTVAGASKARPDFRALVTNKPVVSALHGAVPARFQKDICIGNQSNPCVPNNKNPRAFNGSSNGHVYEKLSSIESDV
T2 sequence (Q12879 23-1464, other chains not shown): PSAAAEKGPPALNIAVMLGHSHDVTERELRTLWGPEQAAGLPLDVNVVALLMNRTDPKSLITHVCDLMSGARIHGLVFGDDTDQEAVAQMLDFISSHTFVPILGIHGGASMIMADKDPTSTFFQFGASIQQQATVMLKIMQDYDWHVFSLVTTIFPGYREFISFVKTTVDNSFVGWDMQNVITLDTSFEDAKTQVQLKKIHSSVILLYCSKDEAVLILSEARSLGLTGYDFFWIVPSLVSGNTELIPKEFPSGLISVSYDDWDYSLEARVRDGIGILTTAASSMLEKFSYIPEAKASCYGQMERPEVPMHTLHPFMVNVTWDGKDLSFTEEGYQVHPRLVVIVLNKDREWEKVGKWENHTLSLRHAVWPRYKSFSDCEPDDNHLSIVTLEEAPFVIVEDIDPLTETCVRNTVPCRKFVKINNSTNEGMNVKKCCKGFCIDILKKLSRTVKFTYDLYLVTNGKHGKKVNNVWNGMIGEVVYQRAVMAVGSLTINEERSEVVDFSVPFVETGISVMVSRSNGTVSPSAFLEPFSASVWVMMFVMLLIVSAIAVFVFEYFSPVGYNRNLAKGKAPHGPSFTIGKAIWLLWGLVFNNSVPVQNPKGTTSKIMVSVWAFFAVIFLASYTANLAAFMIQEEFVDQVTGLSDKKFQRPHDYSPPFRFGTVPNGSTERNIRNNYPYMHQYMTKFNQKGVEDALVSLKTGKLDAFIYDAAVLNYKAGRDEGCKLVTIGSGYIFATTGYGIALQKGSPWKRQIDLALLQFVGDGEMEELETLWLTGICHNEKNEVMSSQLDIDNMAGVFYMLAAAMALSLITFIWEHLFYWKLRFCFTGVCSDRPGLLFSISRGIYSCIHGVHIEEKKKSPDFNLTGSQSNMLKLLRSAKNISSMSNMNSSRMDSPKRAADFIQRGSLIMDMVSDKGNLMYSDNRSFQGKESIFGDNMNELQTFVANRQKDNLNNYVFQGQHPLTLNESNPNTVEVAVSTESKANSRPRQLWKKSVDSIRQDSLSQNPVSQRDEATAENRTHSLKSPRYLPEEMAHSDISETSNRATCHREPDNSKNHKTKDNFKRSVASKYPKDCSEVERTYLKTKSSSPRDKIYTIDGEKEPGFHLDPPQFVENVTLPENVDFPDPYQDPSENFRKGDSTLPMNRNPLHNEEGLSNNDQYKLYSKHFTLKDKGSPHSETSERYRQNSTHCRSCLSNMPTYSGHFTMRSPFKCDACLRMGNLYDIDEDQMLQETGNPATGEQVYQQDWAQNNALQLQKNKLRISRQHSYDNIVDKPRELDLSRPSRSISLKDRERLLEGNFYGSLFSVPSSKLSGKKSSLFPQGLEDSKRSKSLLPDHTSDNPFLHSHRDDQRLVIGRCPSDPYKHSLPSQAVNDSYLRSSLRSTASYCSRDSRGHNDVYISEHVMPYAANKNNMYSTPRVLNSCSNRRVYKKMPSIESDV

## CC[C@]1(O)CC[C@H]2C(=CC[C@@H]3[C@@H]2CC[C@]2(C)[C@@H]([C@H](C)CCC4(O)CCOC4)CC[C@@H]32)C1 (stereo partly drawn) [Compound 8689]
[1]
  Emax: 439%
[2]
  Emax: 320%

## CC(C)[C@@H](O)CC[C@@H](C)[C@H]1CC[C@H]2[C@@H]3CC=C4C[C@](O)(C(F)(F)F)CC[C@]4(C)[C@H]3CC[C@]12C [Compound 1-A]
[1]
  Emax: 250%
[2]
  Emax: 275%

## CC(C)[C@H](O)CC[C@@H](C)[C@H]1CC[C@H]2[C@@H]3CC[C@H]4C[C@@](C)(O)CC[C@@H]4[C@H]3CC[C@]12C [Compound 1B75]
[1]
  Avg Emax 2B (%): 233.1%
  EC50: 0.183 µM
[2]
  Avg Emax 2A (%): 278.8%
  EC50: 0.165 µM

## C[C@H](CCC1(O)CCC(OC(F)F)CC1)[C@H]1CC[C@H]2[C@@H]3CC[C@H]4C[C@](O)(C(F)(F)F)CC[C@]4(C)[C@H]3CC[C@]12C (stereo partly drawn) [Compound 5131]
[1]
  Avg Emax 2B (%): 39.0%
  EC50: > 10 µM
[2]
  Avg Emax 2A (%): 52.9%
  EC50: 0.0336 µM

## C[C@H](CCC(O)Cc1ccccc1)[C@H]1CC[C@H]2[C@@H]3CC=C4C[C@@](C)(O)CC[C@]4(C)[C@H]3CC[C@]12C (stereo partly drawn) [Compound 660]
[1]
  Avg Emax 2B (%): 281.1%
  EC50: 0.517 µM
[2]
  Avg Emax 2A (%): 195.2%
  EC50: 0.701 µM

## C[C@H](CC[C@@H](O)C(C)(C)C)[C@H]1CC[C@H]2[C@@H]3CC=C4C[C@](O)(C(F)(F)F)CC[C@]4(C)[C@H]3CC[C@]12C [Compound 3382]
[1]
  Emax: 461%
[2]
  Emax: 309%

## CC(C)[C@@H](O)CC[C@@H](C)[C@H]1CC[C@H]2[C@@H]3CC[C@H]4C[C@@](C)(O)CC[C@@H]4[C@H]3CC[C@]12C [Compound 1A75]
[1]
  Avg Emax 2B (%): 308.0%
  EC50: 0.44 µM
[2]
  Avg Emax 2A (%): 457.2%
  EC50: 0.671 µM

## C[C@H](CCC1(O)CCOC1)[C@H]1CC[C@H]2[C@@H]3CC=C4C[C@](O)(C(F)(F)F)CC[C@]4(C)[C@H]3CC[C@]12C (stereo partly drawn) [Compound 10]
[1]
  Emax: 362%
[2]
  Emax: 632%

## CC[C@]1(O)CC[C@@]2(C)C(=CC[C@H]3[C@@H]4CC[C@H]([C@H](C)CC[C@@H](O)c5ccccc5F)[C@@]4(C)CC[C@@H]32)C1 [Compound 7282]
[1]
  Emax: 290%
[2]
  Emax: 208%

## C[C@H](CCC[C@@H](C)O)[C@H]1CC[C@H]2[C@@H]3CC[C@H]4C[C@](O)(C(F)(F)F)CC[C@]4(C)[C@H]3CC[C@]12C [Compound 112]
[1]
  Avg Emax 2B (%): 150.8%
  EC50: 0.478 µM
[2]
  Avg Emax 2A (%): 92.6%
  EC50: 0.48 µM

## CCC1(O)CCC2(C)C(=CCC3C2CCC2(C)C(C(C)CCC(O)c4ccccc4F)CCC32)C1 (single isomer, unassigned) [Compound 7281]
[1]
  Emax: 126%
[2]
  Emax: 98.1%

## C[C@H](CCC(O)(c1ccccc1)C(F)(F)F)[C@H]1CC[C@H]2[C@@H]3CC=C4C[C@@](C)(O)CC[C@]4(C)[C@H]3CC[C@]12C (stereo partly drawn) [Compound 559]
[1]
  Avg Emax 2B (%): 373.2%
  EC50: 1.56 µM
[2]
  Avg Emax 2A (%): 204.3%
  EC50: 1.57 µM

## C[C@H](CCC1(O)CCC(F)(F)CC1)[C@H]1CC[C@H]2[C@@H]3CC=C4C[C@](O)(C(F)(F)F)CC[C@]4(C)[C@H]3CC[C@]12C [Compound 2392]
[1]
  Emax: 166%
[2]
  Emax: 230%

## C[C@H](CCC1(O)CCOCC1)[C@H]1CC[C@H]2[C@@H]3CC[C@H]4C[C@](O)(C(F)(F)F)CC[C@]4(C)[C@H]3CC[C@]12C [Compound 11]
[1]
  Avg Emax 2B (%): 157.4%
  EC50: 0.104 µM
[2]
  Avg Emax 2A (%): 151.2%
  EC50: 0.117 µM

## C[C@H](CC[C@@H](O)C(F)(F)F)[C@H]1CC[C@H]2[C@@H]3CC=C4C[C@](O)(C(F)(F)F)CC[C@]4(C)[C@H]3CC[C@]12C [Compound 3149]
[1]
  Emax: 472%
[2]
  Emax: 292%

## CC[C@]1(O)CC[C@H]2C(=CC[C@@H]3[C@@H]2CC[C@]2(C)[C@@H]([C@H](C)CC[C@@H](O)C(C)C)CC[C@@H]32)C1 [Compound 8463]
[1]
  Emax: 324%
[2]
  Emax: 291%

## C[C@H](CC[C@](C)(O)C(F)(F)F)[C@H]1CC[C@H]2[C@@H]3CC=C4C[C@@](C)(O)CC[C@@H]4[C@H]3CC[C@]12C [Compound 9062]
[1]
  Avg Emax 2B (%): 52.2%
  EC50: 0.179 µM
[2]
  Avg Emax 2A (%): 66.5%
  EC50: 0.0345 µM

## C[C@H](CCC(O)C(C)(C)C)[C@H]1CC[C@H]2[C@@H]3CC=C4C[C@](O)(C(F)(F)F)CC[C@]4(C)[C@H]3CC[C@]12C (stereo partly drawn) [Compound 2500]
[1]
  Emax: 300%
[2]
  Emax: 303%

## C[C@H](CC[C@@H](O)C(C)(C)C)[C@H]1CC[C@H]2[C@@H]3CC[C@@H]4C[C@](O)(C(F)(F)F)CC[C@]4(C)[C@H]3CC[C@]12C [Compound 3788]
[1]
  Emax: 410%
[2]
  Emax: 229%

## C[C@H](CCC[C@@H](O)C(C)(C)C)[C@H]1CC[C@H]2[C@@H]3CC[C@H]4C[C@](O)(C(F)(F)F)CC[C@]4(C)[C@H]3CC[C@]12C [Compound 12055]
[1]
  Avg Emax 2B (%): 184.7%
  EC50: 1.13 µM
[2]
  Avg Emax 2A (%): 113.8%
  EC50: 0.506 µM

## C[C@H](CCC1(O)CCC(F)(F)CC1)[C@H]1CC[C@H]2[C@@H]3CC[C@H]4C[C@](O)(C(F)(F)F)CC[C@]4(C)[C@H]3CC[C@]12C [Compound 8]
[1]
  Emax: 322%
[2]
  Emax: 402%

## CC[C@]1(O)CC[C@@]2(C)C(=CC[C@H]3[C@@H]4CC[C@H]([C@H](C)CC[C@H](O)c5ccc(F)cc5)[C@@]4(C)CC[C@@H]32)C1 [Compound 7146]
[1]
  Emax: 167%
[2]
  Emax: 104%

## CCC1(O)CCC2C(=CCC3C2CCC2(C)C(C(C)CCC4(O)CCOC4)CCC32)C1 (single isomer, unassigned) [Compound 8602]
[1]
  Emax: 262%
[2]
  Emax: 272%

## C[C@H](O)CCC[C@@H](C)[C@H]1CC[C@H]2[C@@H]3CC[C@H]4C[C@](O)(C(F)(F)F)CC[C@]4(C)[C@H]3CC[C@]12C [Compound 2113]
[1]
  Avg Emax 2B (%): 285.0%
  EC50: 0.413 µM
[2]
  Avg Emax 2A (%): 402.7%
  EC50: 0.38 µM

## CC[C@]1(O)CC[C@H]2C(=CC[C@@H]3[C@@H]2CC[C@]2(C)[C@@H]([C@H](C)CC[C@]4(O)CCOC4)CC[C@@H]32)C1 [Compound 8603]
[1]
  Emax: 271%
[2]
  Emax: 294%

## C[C@H](O)CC[C@@H](C)[C@H]1CC[C@H]2[C@@H]3CC[C@H]4C[C@](O)(C(F)(F)F)CC[C@]4(C)[C@H]3CC[C@]12C [Compound 6]
[1]
  Emax: 163%
[2]
  Emax: 137%

## C[C@H](CC[C@H](O)C(C)(C)C)[C@H]1CC[C@H]2[C@@H]3CC=C4C[C@](O)(C(F)(F)F)CC[C@]4(C)[C@H]3CC[C@]12C [Compound 3507]
[1]
  Emax: 241%
[2]
  Emax: 166%

## C[C@H](CC[C@]1(O)CC[C@H](C)CC1)[C@H]1CC[C@H]2[C@@H]3CC[C@H]4C[C@](O)(C(F)(F)F)CC[C@]4(C)[C@H]3CC[C@]12C [Compound 3877]
[1]
  Emax: 71.1%
[2]
  Emax: 42.4%

## CC[C@]1(O)CC[C@H]2C(=CC[C@@H]3[C@@H]2CC[C@]2(C)[C@@H]([C@H](C)CCC[C@@H](O)C(C)C)CC[C@@H]32)C1 [Compound 10114]
[1]
  Avg Emax 2B (%): 179.1%
  EC50: 0.506 µM
[2]
  Avg Emax 2A (%): 146.3%
  EC50: 0.321 µM

## CC[C@]1(O)CC[C@H]2C(=CC[C@@H]3[C@@H]2CC[C@]2(C)[C@@H]([C@H](C)CC[C@H](O)C(C)C)CC[C@@H]32)C1 [Compound 8462]
[1]
  Emax: 281%
[2]
  Emax: 273%

## C[C@H](CC[C@H](O)C(C)(C)C)[C@H]1CC[C@H]2[C@@H]3CC[C@@H]4C[C@](O)(C(F)(F)F)CC[C@]4(C)[C@H]3CC[C@]12C [Compound 3634]
[1]
  Emax: 379%
[2]
  Emax: 221%

## C[C@H](CC[C@](C)(O)C(F)(F)F)[C@H]1CC[C@H]2[C@@H]3CC=C4C[C@](O)(C(F)(F)F)CC[C@]4(C)[C@H]3CC[C@]12C [Compound 3035]
[1]
  Emax: 611%
[2]
  Emax: 323%

## CC[C@]1(O)CC[C@@]2(C)[C@@H](CC[C@@H]3[C@@H]2CC[C@]2(C)[C@@H]([C@H](C)CC[C@H](O)c4ccccn4)CC[C@@H]32)C1 [Compound 7032]
[2]
  EC50: > 10 µM

## C[C@H](CC[C@@](C)(O)c1ccccc1)[C@H]1CC[C@H]2[C@@H]3CC=C4C[C@@](C)(O)CC[C@]4(C)[C@H]3CC[C@]12C [Compound 7467]
[1]
  Emax: 8.8%
[2]
  Emax: 20.5%

## CC[C@]1(O)CC[C@@]2(C)[C@@H](CC[C@@H]3[C@@H]2CC[C@]2(C)[C@@H]([C@H](C)CC[C@@H](O)c4ccccn4)CC[C@@H]32)C1 [Compound 7030]
[2]
  EC50: > 10 µM

Source: EP3529257B1, “[…] METHODS OF USE THEREOF” (Sage Therapeutics, Inc., priority 2016, dated 2018)
